Reference: patent US20210115018A1, “PIPERIDINE COMPOUNDS AS COVALENT MENIN INHIBITORS” (THE REGENTS OF THE UNIVERSITY OF MICHIGAN, priority 2018, published 2021)

Legend:
menin protein = target: T1, menin protein (Homo sapiens, UniProt O00255); experiment: Fluorescence polarization (FP) competitive binding assay, menin binding affinity; details: FP competition with FAM-MM2 probe 2 nM, menin 4 nM, 30 minutes room temperature
T1 sequence (O00255 1-610): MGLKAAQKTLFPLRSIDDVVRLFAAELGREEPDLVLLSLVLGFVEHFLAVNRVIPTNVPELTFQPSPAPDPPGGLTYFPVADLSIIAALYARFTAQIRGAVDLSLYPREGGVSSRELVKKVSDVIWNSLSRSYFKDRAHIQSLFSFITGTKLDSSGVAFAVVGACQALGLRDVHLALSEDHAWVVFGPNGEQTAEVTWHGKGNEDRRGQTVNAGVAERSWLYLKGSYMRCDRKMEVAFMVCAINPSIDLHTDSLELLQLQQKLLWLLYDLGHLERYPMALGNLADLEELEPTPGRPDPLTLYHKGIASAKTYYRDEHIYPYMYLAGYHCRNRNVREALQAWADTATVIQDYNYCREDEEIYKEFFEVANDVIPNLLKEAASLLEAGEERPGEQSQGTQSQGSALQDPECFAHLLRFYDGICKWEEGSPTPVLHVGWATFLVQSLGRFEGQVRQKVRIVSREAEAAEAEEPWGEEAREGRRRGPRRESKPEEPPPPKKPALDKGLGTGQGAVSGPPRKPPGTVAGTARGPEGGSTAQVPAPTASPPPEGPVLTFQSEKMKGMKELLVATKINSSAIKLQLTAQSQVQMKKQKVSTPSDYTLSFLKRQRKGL
Method: A fluorescence polarization (FP) competitive binding assay was used to determine the binding affinities of representative menin inhibitors. A FAM labeled fluorescent probe was designed and synthesized based on a MLL1 peptide (FAM-MM2). Equilibrium dissociation constant (Kd) value of FAM-MM2 to menin protein was determined from protein saturation experiments by monitoring the total fluorescence polarization of mixtures composed with the fluorescent probe at a fixed concentration and the protein with increasing concentrations up to full saturation. Serial dilutions of the protein were mixed with FAM-MM2 to a final volume of 200 μl in the assay buffer (PBS with 0.02% Bovine γ-Globulin and 4% DMSO. 0.01% Triton X-100 was added right before assays). Final FAM-MM2 concentration was 2 nM. Plates were incubated at room temperature for 30 minutes with gentle shaking to assure equilibrium. FP values in millipolarization units (mP) were measured using the Infinite M-1000 plate reader (Tecan U.S., Research Triangle Park, N.C.) in Microfluor 1 96-well, black, v-bottom plates (Thermo Scientific, Waltham, Mass.) at an excitation wavelength of 485 nm and an emission wavelength of 530 nm.
The IC50 of representative Compounds of the Disclosure, see Table 3, were determined in a competitive binding experiment. Mixtures of 5 μl of the tested compounds in DMSO and 195 μl of preincubated protein/probe complex solution in the assay buffer were added into assay plates which were incubated at room temperature for 30 minutes with gentle shaking. Final concentration of the menin protein was 4 nM, and final probe concentration is 2 nM. Negative controls containing protein/probe complex only (equivalent to 0% inhibition), and positive controls containing only free probes (equivalent to 100% inhibition), were included in each assay plate. FP values were measured as described above. IC50 values were determined by nonlinear regression fitting of the competition curves.

MOLM13 = experiment: 7-day proliferation assay (WST-8), cell growth inhibition; type: cell-based; details: Homo sapiens, MOLM-13, 168 h, MOLM13 cells, 7 days
Method in brief: (§1)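 Cells seeded at 2,000-3,000/well were exposed to serially diluted compound for 7 days at 37° C., 5% CO2. Viability was read by WST-8 absorbance at 450 nm after 1-2 h color development; readings normalized to DMSO-treated cells, IC50 by four-parameter nonlinear regression.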

MV4-11 = experiment: as above; type: cell-based; details: Homo sapiens, MV4-11, 168 h, MV4-11 cells, 7 days
Method in brief: as §1

Row | SMILES | IC50 (menin protein) [nM] | IC50 (MOLM13) [nM] | IC50 (MV4-11) [nM]
1 | C=C(CN1CCOCC1)C(=O)N1CC(S(=O)(=O)c2ccc(N3CC(F)(CN4CCC([C@@](CN5CCC5)(c5cccc(F)c5)[C@H]5CCC[C@@H]5NC(=O)OC)CC4)C3)cc2)C1 [Cpd. No. 12, methyl ((1S,2R)-2-((S)-2-(azetidin-1-yl)-1-(1-((3-fluoro-1-(4-((1-(2-(morpholinomethyl)acryloyl)azetidin-3-yl)sulfonyl)phenyl)azetidin-3-yl)methyl)piperidin-4-yl)-1-(3-fluorophenyl)ethyl)cyclopentyl)carbamate] | 2 | < 100 | < 10
2 | C=C(CN(C)C)C(=O)N1CC(S(=O)(=O)c2ccc(N3CC(F)(CN4CCC([C@@](CN5CCC5)(c5cccc(F)c5)[C@H]5CCC[C@@H]5NC(=O)OC)CC4)C3)cc2)C1 [Cpd. No. 13, methyl ((1S,2R)-2-((S)-2-(azetidin-1-yl)-1-(1-((1-(4-((1-(2-((dimethylamino)methyl)acryloyl)azetidin-3-yl)sulfonyl)phenyl)-3-fluoroazetidin-3-yl)methyl)piperidin-4-yl)-1-(3-fluorophenyl)ethyl)cyclopentyl)carbamate] | 1 | < 100 | < 10
3 | C=C(CN1CCCCC1)C(=O)N1CC(S(=O)(=O)c2ccc(N3CC(CN4CCC([C@@](CN5CCC5)(c5cccc(F)c5)[C@H]5CCC[C@@H]5NC(=O)OC)CC4)C3)cc2)C1 [Cpd. No. 17, methyl ((1S,2R)-2-((S)-2-(azetidin-1-yl)-1-(3-fluorophenyl)-1-(1-((1-(4-((1-(2-(piperidin-1-ylmethyl)acryloyl)azetidin-3-yl)sulfonyl)phenyl)azetidin-3-yl)methyl)piperidin-4-yl)ethyl)cyclopentyl)carbamate] | 2 | < 100 | < 10
4 | C=C(CN1CCCCC1)C(=O)N1CC(S(=O)(=O)c2ccc(N3CC(F)(CN4CCC([C@@](CN5CCC5)(c5cccc(F)c5)[C@H]5CCC[C@@H]5NC(=O)OC)CC4)C3)cc2)C1 [Cpd. No. 18, methyl ((1S,2R)-2-((S)-2-(azetidin-1-yl)-1-(1-((3-fluoro-1-(4-((1-(2-(piperidin-1-ylmethyl)acryloyl)azetidin-3-yl)sulfonyl)phenyl)azetidin-3-yl)methyl)piperidin-4-yl)-1-(3-fluorophenyl)ethyl)cyclopentyl)carbamate] | 2 | < 100 | < 10
5 | C=C(CN1CCCC1)C(=O)N1CC(S(=O)(=O)c2ccc(N3CC(CN4CCC([C@@](CN5CCC5)(c5cccc(F)c5)[C@H]5CCC[C@@H]5NC(=O)OC)CC4)C3)cc2)C1 [Cpd. No. 19, methyl ((1S,2R)-2-((S)-2-(azetidin-1-yl)-1-(3-fluorophenyl)-1-(1-((1-(4-((1-(2-(pyrrolidin-1-ylmethyl)acryloyl)azetidin-3-yl)sulfonyl)phenyl)azetidin-3-yl)methyl)piperidin-4-yl)ethyl)cyclopentyl)carbamate] | 1 | < 100 | < 10
6 | COC(=O)N[C@H]1CCC[C@@H]1[C@](CN1CCC1)(c1cccc(F)c1)C1CCN(CC2CN(c3ccc(S(=O)(=O)C4CN(C(=O)/C=C/CN5CC(F)C5)C4)cc3)C2)CC1 [Cpd. No. 174] | 2 | < 10 | < 10
7 | COC(=O)N[C@H]1CCC[C@@H]1[C@](CN1CCC1)(c1cccc(F)c1)C1CCN(CC2CN(c3ccc(S(=O)(=O)C4CN(C(=O)/C=C/CN5CC(F)(F)C5)C4)cc3)C2)CC1 [Cpd. No. 175] | 1 | < 10 | < 10
8 | C=CC(=O)Nc1cccc(S(=O)(=O)c2ccc(N3CC(F)(CN4CCC([C@@](CN5CCC5)(c5cccc(F)c5)[C@H]5CCC[C@@H]5NC(=O)OC)CC4)C3)c(F)c2)c1 [compound 80] | 2 | < 50 | < 50
9 | COC(=O)N[C@H]1CCC[C@@H]1[C@](CN1CCC1)(c1cccc(F)c1)C1CCN(CC2CN(c3ccc(S(=O)(=O)C4CN(C(=O)/C=C/CN5CCC(C)(O)CC5)C4)cc3)C2)CC1 [compound 99] | 9 | < 100 | < 10
10 | COC(=O)N[C@H]1CCC[C@@H]1[C@](CNC(C)=O)(c1cccc(F)c1)C1CCN(CC2CN(c3ccc(S(=O)(=O)C4CN(C(=O)/C=C/CN5CCCCC5)C4)c(CN4CC(F)C4)c3)C2)CC1 [compound 131] | 2 | < 10 | < 10

Further lines, results first:

Row | IC50 (menin protein) [nM] | IC50 (MOLM13) [nM] | IC50 (MV4-11) [nM] | SMILES
11 | 5 | < 10 | < 10 | COC(=O)N[C@H]1CCC[C@@H]1[C@](CN(C)C)(c1cccc(F)c1)C1CCN(CC2CN(c3ccc(S(=O)(=O)C4CN(C(=O)/C=C/CN(C)C)C4)cc3)C2)CC1 [Cpd. No. 2, methyl ((1S,2R)-2-((S)-2-(dimethylamino)-1-(1-((1-(4-((1-((E)-4-(dimethylamino)but-2-enoyl)azetidin-3-yl)sulfonyl)phenyl)azetidin-3-yl)methyl)piperidin-4-yl)-1-(3-fluorophenyl)ethyl)cyclopentyl)carbamate]
12 | 2 | < 50 | < 50 | COC(=O)N[C@H]1CCC[C@@H]1[C@](CN1CCCC1)(c1cccc(F)c1)C1CCN(CC2CN(c3ccc(S(=O)(=O)C4CN(C(=O)/C=C/CN(C)C)C4)cc3)C2)CC1 [Cpd. No. 3]
13 | 3 | < 50 | < 10 | COC(=O)N[C@H]1CCC[C@@H]1[C@](CN1CCC1)(c1cccc(F)c1)C1CCN(CC2CN(c3ccc(S(=O)(=O)C4CN(C(=O)/C=C/CN(C)C)C4)cc3)C2)CC1 [Cpd. No. 5, methyl ((1S,2R)-2-((S)-2-(azetidin-1-yl)-1-(1-((1-(4-((1-((E)-4-(dimethylamino)but-2-enoyl)azetidin-3-yl)sulfonyl)phenyl)azetidin-3-yl)methyl)piperidin-4-yl)-1-(3-fluorophenyl)ethyl)cyclopentyl)carbamate]
14 | 2 | < 100 | < 10 | COC(=O)N[C@H]1CCC[C@@H]1[C@](CN1CCC1)(c1cccc(F)c1)C1CCN(CC2(F)CN(c3ccc(S(=O)(=O)C4CN(C(=O)/C=C/CN(C)C)C4)cc3)C2)CC1 [Cpd. No. 7, methyl ((1S,2R)-2-((S)-2-(azetidin-1-yl)-1-(1-((1-(4-((1-((E)-4-(dimethylamino)but-2-enoyl)azetidin-3-yl)sulfonyl)phenyl)-3-fluoroazetidin-3-yl)methyl)piperidin-4-yl)-1-(3-fluorophenyl)ethyl)cyclopentyl)carbamate]
15 | 2 | < 100 | < 10 | COC(=O)N[C@H]1CCC[C@@H]1[C@](CN1CCC1)(c1cccc(F)c1)C1CCN(CC2CN(c3ccc(S(=O)(=O)C4CN(C(=O)/C=C/CN5CCCC5)C4)cc3)C2)CC1 [Cpd. No. 20, methyl ((1S,2R)-2-((S)-2-(azetidin-1-yl)-1-(3-fluorophenyl)-1-(1-((1-(4-((1-((E)-4-(pyrrolidin-1-yl)but-2-enoyl)azetidin-3-yl)sulfonyl)phenyl)azetidin-3-yl)methyl)piperidin-4-yl)ethyl)cyclopentyl)carbamate]
16 | 3 | < 10 | < 10 | COC(=O)N[C@H]1CCC[C@@H]1[C@](CN1CCC1)(c1cccc(F)c1)C1CCN(CC2CN(c3ccc(S(=O)(=O)C4CN(C(=O)/C=C/CN5CCCCC5)C4)cc3)C2)CC1 [Cpd. No. 24, methyl ((1S,2R)-2-((S)-2-(azetidin-1-yl)-1-(3-fluorophenyl)-1-(1-((1-(4-((1-((E)-4-(piperidin-1-yl)but-2-enoyl)azetidin-3-yl)sulfonyl)phenyl)azetidin-3-yl)methyl)piperidin-4-yl)ethyl)cyclopentyl)carbamate]
